Tests used:
[1] = system: fibronectin (FN); experiment: TGF-β inhibition in HepG2 cell lines, qRT-PCR of fibronectin mRNA; format: cell-based, human; conditions: HepG2, TGF-β1 treated; positive control
Procedure: (§1) To verify the TGF-β inhibitory effect of PEP1, which is considered as the main cause of fibrosis, an experiment for confirming a TGF-β signaling inhibiting action in HepG2 cell lines was performed as follows.
(§2) Reagents and materials used in the experiment are as follows. After powdery PEP1 was dissolved in 0.2 μm filtered sterile water, aliquots were stored at −70° C. and then dissolved before use. As a cell line, HepG2 (ATCC HB-8065; American Type Culture Collection) was used, and recombinant human TGF-β1 was dissolved in 4 mM HCl, thereby preparing a 10 μg/mL stock. SB431542 (Sigma) used as a positive control was prepared in a 10 mM stock.
(§3) 2×10^6 HepG2 cells (ATCC HB-8065) were seeded into a 60 mm petri-dish and cultured in a CO2 incubator for 16 hours. Afterward, media were transferred to serum-free media (SFM), and then the cells were further cultured for 24 hours. […]
(§4) RNA was extracted from peptide-treated cells using an RNEASY® Plus Mini Kit (Qiagen) (RNA extraction kit) according to the manufacture's protocol. The extracted RNA was quantified, and then cDNA was synthesized from 1 μg of total RNA using a reverse transcription system (Promega). […] As TGF-β-related biomarkers, mRNA expression of fibronectin (FN), Smad2 and Smad4 were analyzed, and as a reference gene, GAPDH was used. […]

[2] = system: AsPC1 cells; experiment: AsPC1 cell xenograft model: fibrosis, cancer cells and mouse weight; format: in vivo, nude mice; conditions: for fibrosis (collagen parts stained in blue color in cancer tissue): administration starting 10 days after inoculation, PEP1 2 mg/kg once a day s.c.
Procedure: To verify in vivo anticancer effects of PEP1 and gemcitabine on pancreatic cancer, xenograft experiments were performed using AsPC1 cell lines. A xenografting method used herein is as follows.
Reagents and materials used for the experiment are as follows. After powdery PEP1 was dissolved in 0.2 μm filtered sterile water, aliquots were stored at −70° C. and then dissolved before use, and gemcitabine was dissolved in 100% saline. 5-fluorouracil was dissolved in DMSO.
AsPC1 cell lines (Cell #6×10^5 cells/[…]), which were cell lines used in the experiment, are human pancreatic cancer metastatic cells purchased from the American Type Cell Culture (ATCC, Rockville, Md.).
AsPC1 cells were injected into each of nude mouse experiment groups (1) to (4).
The cultured 5×10^6 AsPC1 cells were subcutaneously injected into nude mice (BALB/c-nu/nu nude mice, purchased from Joongang Laboratory animal, Seoul, Korea). The injection was performed until cancer was grown to a size of 100 mm^3 (about 10 days). Following cancer engraftment, the mice were divided into groups, each group having a similar average weight, and then either or both of gemcitabine and Pep1 were subcutaneously and intraperitoneally injected into the mice according to the conditions for each of the four experiment groups below (refer to FIG. 1). Cancer volume was measured with calipers and calculated by the following formula [width^2×length×0.52].
After grafting, either or both of Pep1 and gemcitabine were administered to each of the four experiment groups.
(1) AsPC1 grafting control
(2) AsPC1 grafting+PEP1 2 mg/kg (once a day, s.c) administered group
After then, weight of each mouse was quantified every time. Also, cancer tissue sample preparation and cell proliferation marker (PCNA)/apoptosis marker (TUNEL) staining were performed.
For analyses of experiment results, averages between several experiment groups was assessed by a student's t-test.

[3] = system: oral mucositis model; experiment: In vivo oral mucositis model, radiation-induced tongue ulcer; conditions: C3H mice, PEP1 1 mg/kg intraperitoneally, 6 Gy IR for five consecutive days
Procedure: (§5) PEP1 synthesized according to Example 1 and a placebo (sham) used as a control were prepared. NHEKs were cultured in a monolayer to prepare an in vitro radiation exposure experiment. For in vitro, in situ, and in vivo radiation exposure experiments, ionized radiation was used at various intensities ranging from 0 to 10 Gy (0, 2, 4, 6, 8, and 10 Gy).
(§6) Meanwhile, experimental animals were divided into two animal models. The first model was an oral mucositis model, which was prepared by inducing an ulcer to the tongue of each C3H mouse by exposing the head and the neck to radiation (6 Gy, IR) for 5 straight days. The second model is a dermal fibrosis model, which was prepared by inducing local scleroderma by subcutaneously injecting 0.1 cc of a dilution of bleomycin which was known as the cause of pulmonary fibrosis in a 0.9% NaCl aqueous solution at a concentration of 0.5 mg/ml once a day for 24 to 28 days.
For the in vivo experiment, first, in the first oral mucositis model, C3H mice were divided into groups, each intraperitoneally treated with a placebo or PEP1 to give a final dose of 1 mg/kg and exposed to radiation (6 Gy, IR) for five consecutive days to induce a tongue ulcer corresponding to an oral mucositis. Ten days later, the mice were sacrificed to collect tongue tissue, which was stained with toluidine blue and by H&E staining, to perform biopsy. […]

[4] = system: GRHL2; experiment: Biomarker expression in radiation-exposed NHEKs: GRHL2; format: cell-based, human; conditions: 1 mM of PEP1, 10 days after radiation exposure (6 Gy)
Procedure: (§7) PEP1 synthesized according to Example 1 and a placebo (sham) as a control were prepared. Normal human epidermal keratinocytes (NHEKs) were cultured in a monolayer to be used for a radiation exposure experiment. For the radiation exposure experiment, ionized radiation was used at an intensity of 6 Gy.
(§8) Also, to examine the change in expression levels of biomarkers for the NHEK cell lines due to the radiation exposure, the NHEKs were treated with each of the placebo and 1 mM of PEP1 and divided into non-exposed groups (−) and radiation-exposed groups (+), and then expression levels of the biomarkers were examined at day 1 and day 10 after the radiation exposure (refer to FIG. 14). In measurement of the expression levels of the biomarkers, GAPDH was used as a reference control.
(§9) Western blotting procedures were as follows. Peptide-treated cells were washed with PBS twice, collected into a 1.5 mL centrifuge tube using a cell scraper, followed by centrifugation (1,000 rpm, 4° C., 2 minutes). After removal of the obtained supernatant, 100 μL of RIPA buffer was added to the NHEKs. […]
(§10) […] of protein was transferred to a PVDF membrane (Millipore) by 8% sodium dodecyl sulfate-polyacrylamide gel electrophoresis (SDS-PAGE). […] Afterward, ECL detection (Amersham Pharmacia Biotech) was performed, and obtained images were analyzed using an image analyzer (GE Healthcare, IMAGEQUANT™ LAS 4000).

[5] = system: dermal fibrosis model; experiment: In vivo dermal fibrosis model, bleomycin-induced scleroderma; conditions: C3H mice, PEP1 50 mg/kg intraperitoneally, bleomycin subcutaneously for 24 to 28 days
Procedure: as §6, with “28 days. Meanwhile, in the second dermal fibrosis model, C3H mice were divided into groups, each intraperitoneally treated with a placebo or PEP1 to give the final dose of 50 mg/kg, and subcutaneously treated with bleomycin at the concentrations mentioned in the preparation of the experimental animals for 24 to 28 days. 28 days later, the mice were sacrificed to detect scleroderma, followed by an experiment for examining fibrosis diffusion using Masson's trichrome staining.” for “28 days.”

[6] = system: Smad4; experiment: TGF-β inhibition in HepG2 cell lines, qRT-PCR of Smad4 mRNA; format: cell-based, human; conditions: HepG2, 10 ng/ml TGF-β1; PEP1 1, 5 and 10 μM; 48-hour culture; reference gene GAPDH
Procedure: as §1, §2, §3, §4

[7] = system: P-Akt; experiment: Biomarker expression in radiation-exposed NHEKs: P-Akt; format: cell-based, human; conditions: 1 mM of PEP1, after radiation exposure (6 Gy)
Procedure: as §7, §8, §9, §10

[8] = system: N-Cad; experiment: Biomarker expression in radiation-exposed NHEKs: N-Cad; format: cell-based, human; conditions: 1 mM of PEP1, after radiation exposure (6 Gy)
Procedure: as §7, §8, §9, §10

[9] = system: NHEK cell lines; experiment: In vitro radiation-induced premature senescence (RIPS) marker expression in NHEKs; format: cell-based, human; conditions: radiation 0 to 10 Gy, qRT-PCR, western blotting, immunofluorescence staining
Procedure: as §5
The expression level of each marker was measured using qRT-PCR, western blotting, and immunofluorescence staining. For the measurement of the levels, senescence-associated β-galactosidase (SA β-Gal), p16INK4A, p-p53Ser15, p-ATM, γ-H2AX, 53BP1,H3K9me3, HP1γ, and HMGA2 were used as markers.

[10] = system: p63; experiment: Biomarker expression in radiation-exposed NHEKs: p63; format: cell-based, human; conditions: 1 mM of PEP1, 10 days after radiation exposure (6 Gy)
Procedure: as §7, §8, §9, §10

[11] = system: Smad2; experiment: TGF-β inhibition in HepG2 cell lines, qRT-PCR of Smad2 mRNA; format: cell-based, human; conditions: HepG2, 10 ng/ml TGF-β1; PEP1 1, 5 and 10 μM; 48-hour culture; reference gene GAPDH
Procedure: as §1, §2, §3, §4

[12] = system: Normal human epidermal keratinocytes (NHEKs); experiment: Cell differentiation of radiation-exposed NHEK cell lines; format: cell-based; conditions: 1 mM of PEP1, 6 Gy ionizing radiation, cultured 10 days
Procedure: To confirm PEP1 effects on fibrosis induced by radiation exposure for anticancer treatment and other tumor treatments, an experiment for confirming a TGF-β inhibitory effect of PEP1 in radiation-exposed NHEKs was performed.
as §7
To examine the cell differentiation of NHEK cell lines according to radiation exposure, NHEKs were treated with each of the placebo and 1 mM of PEP1, and then divided into radiation-exposed groups and non-exposed groups, followed by culturing for 10 days (refer to FIG. 13).

[13] = nude mice inoculated with AsPC1 cells, gemcitabine 125 mg/kg once every third day i.p.

Compound | fibronectin inhibition ratio [1] | weight of a mouse ([2]; day 20 after the administration, compared between the four experiment groups) | fibrosis (collagen parts stained in blue color in cancer tissue) [2, 13] | cancer cells (parts stained in red color) [2, 13] | defensive effect against exposure to radiation, indicated by biopsy [3] | GRHL2 expression level [4] | defensive effect against induction of tissue fibrosis, indicated by biopsy [5] | Smad4 mRNA expression [6] | P-Akt expression level (degree of cell survival) [7] | N-Cad expression level [8] | radiation-induced premature senescence (RIPS), indicated by marker expression [9] | p63 expression level [10] | Smad2 mRNA expression [11] | cell differentiation (fibrosis development) after radiation exposure [12]
NC(=O)c1ccc(-c2nc(-c3ccc4c(c3)OCO4)c(-c3ccccn3)[nH]2)cc1 [SB431542] | 60.7% | – | – | – | – | – | – | – | – | – | – | – | – | –
Nc1ccn([C@@H]2O[C@H](CO)[C@@H](O)C2(F)F)c(=O)n1 [gemcitabine] | – | the smallest | fibrosis was considerably developed | cancer cells were killed | – | – | – | – | – | – | – | – | – | –
EARPALLTSRLRFIPK (listed as Homo sapiens) [PEP1, telomerase-derived peptide, which consists of 16 amino acids; position [611-626] on telomerase] | – | – | fibrosis was considerably inhibited | – | defensive effects | increased | defensive effects | concentration-dependently inhibited | increased | decreased | RIPS inhibitory effect | increased | concentration-dependently inhibited | hardly showed differentiation

Source: patent publication US9937240B2, “Peptide having fibrosis inhibitory activity and composition containing same” (GemVax & KAEL Co., Ltd., priority 2014, dated 2018)
